# Assay results taken from patent publication US20080108676A1, “Benzothiazolecarboxamides” (New Benzothiazolecarboxamides, priority 2004, published 2008).
# Target: T1, hVR1 (Homo sapiens, UniProt Q8NER1)
# T1 construct: expressed in transfected cells
# Assay: hVR1 FLIPR (Fluorometric Image Plate Reader) screening assay, IC50 determination
# Type: cell-based
# Settings: agonist capsaicin, inhibition of increase in intracellular calcium
# Description: 1. hVR1 FLIPR (Fluorometric Image Plate Reader) screening assay
# Transfected CHO cells, stably expessing hVR1 (15,000 cells/well) are seeded in 50 ul media in a black clear bottom 384 plate (Greiner) and grown in a humidified incubator (37° C., 2% CO2), 24-30 hours prior to experiment.
# Subsequently, the media is removed from the cell plate by inversion and 2 μM Fluo-4 is added using a multidrop (Labsystems). Following the 40 minutes dye incubation in the dark at 37° C. and 2% CO2, the extracellular dye present is washed away using an EMBLA (Scatron), leaving the cells in 40 ul of assay buffer (1×HBSS, 10 mM D-Glucose, 1 mM CaCl2, 10 mM HEPES, 10×7.5% NaHCO3 and 2.5 mM Probenecid).
# FLIPR Assay—IC50 Determination Protocol
# For IC50 determinations the fluorescence is read using FLIPR filter 1 (em […]). A cellular baseline recording is taken for 30 seconds, followed by a 20 μl addition of 10, titrated half-log concentrations of the test compound, yielding cellular concentration ranging from 3 μM to 0.1 nM. Data is collected every 2 seconds for a further 5 minutes prior to the addition of a VR1 agonist solution: either 50 nM solution of capsaicin or MES (2-[N-morpholino]ethanesulfonic acid) buffer (pH 5.2), by the FLIPR pipettor. The FLIPR continues to collect data for a further 4 minutes. […] This consequently leading to a reduction in fluorescence signal and providing a reduced fluorescence reading, compared with no compound, buffer controls. Data is exported by the FLIPR program as a sum of fluorescence calculated under the curve upon the addition of capsaicin. […]
# FLIPR (Fluorometric Image Plate Reader) screening assay with HEK T-REX hVR1. […]
# For IC50 determinations the fluorescence is read using FLIPR filter 1 (em […]). […] This consequently leading to a reduction in fluorescence signal and providing a reduced fluorescence reading, compared with no compound, buffer controls. Data is exported by the FLIPR program as a sum of fluorescence calculated under the curie upon the addition of capsaicin. […]
# T1 sequence (Q8NER1 whole entry): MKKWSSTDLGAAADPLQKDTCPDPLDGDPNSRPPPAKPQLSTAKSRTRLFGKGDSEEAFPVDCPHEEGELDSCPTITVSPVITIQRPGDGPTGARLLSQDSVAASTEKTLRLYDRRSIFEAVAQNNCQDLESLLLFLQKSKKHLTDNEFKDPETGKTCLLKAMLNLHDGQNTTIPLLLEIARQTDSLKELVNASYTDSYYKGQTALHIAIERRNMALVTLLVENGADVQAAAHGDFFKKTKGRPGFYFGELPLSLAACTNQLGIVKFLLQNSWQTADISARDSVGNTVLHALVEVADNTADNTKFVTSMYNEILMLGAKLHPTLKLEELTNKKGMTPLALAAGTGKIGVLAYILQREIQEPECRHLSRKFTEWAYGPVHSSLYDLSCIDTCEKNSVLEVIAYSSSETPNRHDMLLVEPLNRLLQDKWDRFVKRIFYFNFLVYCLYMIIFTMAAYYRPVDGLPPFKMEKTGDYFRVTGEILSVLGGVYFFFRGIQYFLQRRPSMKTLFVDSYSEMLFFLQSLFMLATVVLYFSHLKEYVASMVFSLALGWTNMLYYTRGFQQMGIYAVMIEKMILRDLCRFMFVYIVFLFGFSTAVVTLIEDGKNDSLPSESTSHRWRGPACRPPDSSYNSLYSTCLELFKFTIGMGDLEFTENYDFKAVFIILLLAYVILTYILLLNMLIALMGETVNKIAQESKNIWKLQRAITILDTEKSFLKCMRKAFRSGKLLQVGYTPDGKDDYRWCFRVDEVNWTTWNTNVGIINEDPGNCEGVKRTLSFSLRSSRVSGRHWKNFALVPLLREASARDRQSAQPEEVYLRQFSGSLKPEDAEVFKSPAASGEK
row,SMILES,IC50 [nM]
1,"Cc1nc2cc(C(=O)Nc3ccc(C(C)(C)C)cc3)ccc2s1 [Example 1, N-4-tert-butylphenyl-2-methyl-1,3-benzothiazole-5-carboxamide]",226
2,"Cc1nc2cc(C(=O)NCc3cccc(C(F)(F)F)c3)ccc2s1 [Example 8, 2-methyl-N-[3-trifluoromethylbenzyl]-1,3-benzothiazole-5-carboxamide]",1660
3,"Cc1nc2cc(C(=O)NCc3ccc(C(F)(F)F)cc3)ccc2s1 [Example 7, 2-methyl-N-[4-trifluoromethylbenzyl]-1,3-benzothiazole-5 carboxamide]",2780
